The values that follow come from ChEMBL document CHEMBL1201862, “PubChem BioAssay data set” (2004).

As usually defined, the IC50 is the point on the concentration scale where inhibition reaches its midpoint.

Each structure is given as a SMILES string. Calls of active or inactive are those of the source. Cut-off read from the data, not from the text of the source, for most assays here: actives have a measured EC50 and inactives only a lower limit. A value given as a limit tells only on which side of the number the result lay.

The first test has as its system Streptococcus. The test can be described thus: Group A Streptococcus viability loss, dose response, counter-screen for streptokinase expression inhibitor project, luminescence, BacTiterGlo (AID 1915).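 Note: potency for reduction of bacterial viability or growth.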 Format: functional, organism-based.
Conditions: not given
For `CCc1nnc(NS(=O)(=O)c2ccc(NCc3cc(Cl)cc(Cl)c3O)cc2)s1`, the EC50 is > 150 µM (not active).
For the molecule `O=[N+]([O-])c1cc(S(=O)(=O)Nc2cccc(Cl)c2)ccc1N=Nc1c(O)[nH]c2ccccc12`, the EC50 was 22.2 µM (active).
Turning to `O=S(=O)(Nc1cccc(-c2ccc(N3CCOCC3)nn2)c1)c1ccc(Cl)c(Cl)c1`, the EC50 is 116 µM (active).
The same measure, in the same setting: with `COc1ccccc1CNC(=O)CSc1nc(=O)n(Cc2ccncc2)c2c1CCC2` the figure was > 150 µM (not active); with `Brc1cc(-c2ccccc2)nc(-c2ccccc2)n1`, > 150 µM (not active); with `COc1ccccc1-n1c(O)cc(=O)nc1SCC(=O)Nc1ccc(C)cc1`, 118 µM (active).
With `CC(=O)Nc1nnc(S(=O)(=O)N2CCN(c3ccc([N+](=O)[O-])cc3Cl)CC2)s1`, the EC50 is > 150 µM (not active).
For the molecule `COCCOC(=O)c1c(C)nc(SCC(=O)Nc2ccc(C)cc2)c(C#N)c1-c1ccco1`, the EC50 is 53.5 µM (active).

Tested on in another test: not listed separately
As to the kind of experiment: inhibitors of SNCA 5'UTR-driven reporter translation, confirmation, H4 neuroglioma cells, luminescence (AID 1988). The class given is functional, cell-based.
Conditions: not given
With `COc1cc2c(cc1OC)-c1cc(NC3CCCCC3)nc(=O)n1CC2`, the EC50 was 33.2 µM (active).

Tested on in a further test: not listed separately
As to the kind of experiment: inhibitors of firefly luciferase expression or activity, dose response, H4 neuroglioma cells, luminescence (AID 1990). The class given is functional, cell-based.
Conditions: not given
As to `COc1cc2c(cc1OC)-c1cc(NC3CCCCC3)nc(=O)n1CC2`, the EC50 was 20 µM (active).

The next test addresses T1, Corticotropin-releasing factor receptor 2/Corticotropin-releasing factor-binding protein (Homo sapiens, UniProt P24387+Q13324).
T1 sequence (Q13324 whole entry): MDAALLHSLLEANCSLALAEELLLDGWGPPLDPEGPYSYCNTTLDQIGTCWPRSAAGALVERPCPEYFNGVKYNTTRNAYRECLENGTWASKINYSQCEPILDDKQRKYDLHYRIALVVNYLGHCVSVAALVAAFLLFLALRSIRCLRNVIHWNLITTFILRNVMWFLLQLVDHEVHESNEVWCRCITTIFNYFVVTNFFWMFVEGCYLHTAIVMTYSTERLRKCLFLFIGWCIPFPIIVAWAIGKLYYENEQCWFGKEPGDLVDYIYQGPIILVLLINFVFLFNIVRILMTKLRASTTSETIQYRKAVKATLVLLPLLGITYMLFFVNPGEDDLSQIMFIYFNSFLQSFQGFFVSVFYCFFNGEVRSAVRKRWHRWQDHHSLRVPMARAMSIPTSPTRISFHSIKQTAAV
T1 sequence (P24387 whole entry): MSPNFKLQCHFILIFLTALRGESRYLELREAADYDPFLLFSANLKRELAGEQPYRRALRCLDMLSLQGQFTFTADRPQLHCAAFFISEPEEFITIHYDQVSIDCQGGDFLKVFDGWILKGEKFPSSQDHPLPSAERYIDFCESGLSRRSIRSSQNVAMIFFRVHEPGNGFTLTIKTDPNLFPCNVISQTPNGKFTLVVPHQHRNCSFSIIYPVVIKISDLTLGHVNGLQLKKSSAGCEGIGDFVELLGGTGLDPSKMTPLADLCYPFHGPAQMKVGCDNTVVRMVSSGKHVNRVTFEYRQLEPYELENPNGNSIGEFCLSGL
As to the kind of experiment: activators of CRF receptor 2 with binding protein – uHTS hits, confirmation (AID 602473). Format: functional. The following applies: read-out: EC50_Mean.
For the molecule `CCOc1ccc(N2C(=O)NC(=O)/C(=C/Nc3ccc(N(CC)CC)cc3)C2=O)cc1`, the EC50 was 10.4 µM (active).

Tested on in the next test: not listed separately
As to the kind of experiment: cells. The class given is functional.
Conditions: not given
Regarding `CCOC(=O)COc1ccc2c(c1)C(=O)CC(C)(c1cccnc1)O2` (centres undefined), the concentration for half-maximal inhibition (IC50) was 11.2 µM (active).
`Cc1ccc(NC(=O)C(=O)NNC(=O)c2ccccc2C)cc1Cl`: the IC50 is 6.8 µM (active).
On to `COc1ccc(OCCOC(=O)c2cccs2)cc1`, for which the IC50 was 23.5 µM (active).
Take `CC1CCCC(/C=N/c2ccc(C(=O)O)c(O)c2)=C1O` (centres undefined): the IC50 is 0.2 µM (active).
Turning to `Cc1ccc(/C=N/NC(=O)c2ccncc2)s1`, the IC50 was 0.96 µM (active).

For the next test, the target named is T2, Streptokinase A (Streptococcus pyogenes serotype M1, UniProt P10520).
T2 sequence (P10520 whole entry): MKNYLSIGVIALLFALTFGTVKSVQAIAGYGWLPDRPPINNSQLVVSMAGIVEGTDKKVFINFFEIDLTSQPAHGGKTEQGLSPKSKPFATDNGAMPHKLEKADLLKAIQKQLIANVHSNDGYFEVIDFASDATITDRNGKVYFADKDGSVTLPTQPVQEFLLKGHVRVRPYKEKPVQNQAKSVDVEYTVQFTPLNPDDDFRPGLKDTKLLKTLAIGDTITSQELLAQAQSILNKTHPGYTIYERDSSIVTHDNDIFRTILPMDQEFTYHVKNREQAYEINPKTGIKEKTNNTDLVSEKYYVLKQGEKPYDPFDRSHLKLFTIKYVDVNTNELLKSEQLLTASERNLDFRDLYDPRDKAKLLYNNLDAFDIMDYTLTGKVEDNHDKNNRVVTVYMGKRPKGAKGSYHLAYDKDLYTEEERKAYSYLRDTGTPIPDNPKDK
As to the kind of experiment: S. pyogenes streptokinase expression inhibitors, potency, dose response, plasminogen activation absorbance, OD405 (AID 1914).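 Note: secreted streptokinase activity via plasminogen activation per viability signal from cell pellet.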 The class given is functional, Streptococcus pyogenes M1 GAS.
Conditions: not given
`CCc1nnc(NS(=O)(=O)c2ccc(NCc3cc(Cl)cc(Cl)c3O)cc2)s1`: the EC50 is 50.8 µM (active).
Still for that read-out and setting: the same measure for `O=[N+]([O-])c1cc(S(=O)(=O)Nc2cccc(Cl)c2)ccc1N=Nc1c(O)[nH]c2ccccc12`: 27.4 µM (active); for `O=S(=O)(Nc1cccc(-c2ccc(N3CCOCC3)nn2)c1)c1ccc(Cl)c(Cl)c1`: 23.5 µM (active).
On to `COc1ccccc1CNC(=O)CSc1nc(=O)n(Cc2ccncc2)c2c1CCC2`, for which the EC50 is recorded as > 150 µM (not active).
Consider `Brc1cc(-c2ccccc2)nc(-c2ccccc2)n1`, for which the EC50 is reported as > 150 µM (not active).
As to `COc1ccccc1-n1c(O)cc(=O)nc1SCC(=O)Nc1ccc(C)cc1`, the EC50 is > 150 µM (not active).
For `CC(=O)Nc1nnc(S(=O)(=O)N2CCN(c3ccc([N+](=O)[O-])cc3Cl)CC2)s1`, the EC50 is recorded as > 150 µM (not active).
For `COCCOC(=O)c1c(C)nc(SCC(=O)Nc2ccc(C)cc2)c(C#N)c1-c1ccco1`, the EC50 is listed as > 150 µM (not active).

Tested on in a further test: not listed separately
As to the kind of experiment: Luminescence Cell-Based Dose Response HTS to Identify Inhibitors of 5'UTR Stem-Loop Driven Prion Protein mRNA Translation in H4 Neuroglioblastoma Cells. [Related pubchem assays: 1827 (Project Summary), 1813 (Primary HTS)]. Format: functional.
Conditions: not given
For `COc1cc2c(cc1OC)-c1cc(NC3CCCCC3)nc(=O)n1CC2`, the EC50 was > 120 µM (not active).

Tested on in the next test: not listed separately
The test can be described thus: cytotoxicity toward NIH3T3 fibroblasts, dose response, counter-screen, cell-based, ATP luminescence, mouse fibroblasts (AID 2010).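 Note: cells exposed to compound for about 90 hours before reading.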
Conditions: not given
Format: functional. For orientation: Counterscreens check selectivity or assay interference.
With `O=[N+]([O-])c1cc(S(=O)(=O)Nc2cccc(Cl)c2)ccc1N=Nc1c(O)[nH]c2ccccc12`, the EC50 is recorded as > 60 µM (not active).

Tested on in another test: not listed separately
The test can be described thus: inhibitors of intracellular T. cruzi replication, confirmation, NIH3T3 host cells, beta-gal luminescence (AID 2044).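 Note: intracellular parasites grown in NIH/3T3 mouse fibroblasts as host cells; luminescent beta-galactosidase reporter signal from transgenic T. cruzi replicating inside host cells; inhibitors lower the luminescence signal.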
Conditions: not given
The class given is functional, cell-based.
Regarding `O=[N+]([O-])c1cc(S(=O)(=O)Nc2cccc(Cl)c2)ccc1N=Nc1c(O)[nH]c2ccccc12`, the EC50 is 1.31 µM (active).

A further test relates to Streptococcus sp. 'group A'. As to the kind of experiment: growth inhibition of control SK(-) GAS strain, dose response, counter-screen for streptokinase expression inhibitor project, luminescence, kanamycin, BacTiterGlo, confirmation (AID 1900). The class given is functional, organism-based.
Conditions: not given
For `CCc1nnc(NS(=O)(=O)c2ccc(NCc3cc(Cl)cc(Cl)c3O)cc2)s1`, the EC50 is 29.5 µM (active).
Turning to `O=[N+]([O-])c1cc(S(=O)(=O)Nc2cccc(Cl)c2)ccc1N=Nc1c(O)[nH]c2ccccc12`, the EC50 was 1.69 µM (active).
With `O=S(=O)(Nc1cccc(-c2ccc(N3CCOCC3)nn2)c1)c1ccc(Cl)c(Cl)c1`, the EC50 was 12.6 µM (active).
For `COc1ccccc1CNC(=O)CSc1nc(=O)n(Cc2ccncc2)c2c1CCC2`, the EC50 is > 150 µM (not active).
For the molecule `Brc1cc(-c2ccccc2)nc(-c2ccccc2)n1`, the EC50 was > 150 µM (not active).
`COc1ccccc1-n1c(O)cc(=O)nc1SCC(=O)Nc1ccc(C)cc1`: the EC50 is 29.9 µM (active).

The target in a further test is Luciferin 4-monooxygenase (Photinus pyralis, UniProt P08659). As to the kind of experiment: firefly luciferase enzyme inhibitors, dose response, biochemical, luminescence (AID 1891).
Chain of Luciferin 4-monooxygenase (P08659 whole entry): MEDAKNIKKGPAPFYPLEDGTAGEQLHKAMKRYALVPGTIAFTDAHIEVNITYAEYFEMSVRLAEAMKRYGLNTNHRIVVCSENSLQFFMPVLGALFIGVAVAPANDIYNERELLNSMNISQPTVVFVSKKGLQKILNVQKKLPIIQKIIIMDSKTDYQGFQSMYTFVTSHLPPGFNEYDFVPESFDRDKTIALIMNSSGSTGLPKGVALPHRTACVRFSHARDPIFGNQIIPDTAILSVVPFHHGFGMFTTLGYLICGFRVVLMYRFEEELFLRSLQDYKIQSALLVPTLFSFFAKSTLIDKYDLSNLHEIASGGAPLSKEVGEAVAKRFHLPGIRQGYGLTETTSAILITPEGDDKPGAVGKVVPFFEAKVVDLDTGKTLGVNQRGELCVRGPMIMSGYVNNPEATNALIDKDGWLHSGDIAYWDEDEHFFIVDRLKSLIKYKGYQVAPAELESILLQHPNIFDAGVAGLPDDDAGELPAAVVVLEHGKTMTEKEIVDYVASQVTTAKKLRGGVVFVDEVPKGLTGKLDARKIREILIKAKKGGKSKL
Conditions: not given
Consider `Cc1ccc(CN(C(=O)c2csnn2)C(C(=O)NC2CCCC2)c2ccc(C)o2)cc1` (centres undefined), for which the EC50 is 67.6 µM (active).
Consider `COc1cc2c(cc1OC)-c1cc(NC3CCCCC3)nc(=O)n1CC2`, for which the EC50 is listed as > 112 µM (not active).

A further test addresses T3, Zinc finger protein mex-5 (Caenorhabditis elegans, UniProt Q9XUB2).
T3 sequence (Q9XUB2 whole entry): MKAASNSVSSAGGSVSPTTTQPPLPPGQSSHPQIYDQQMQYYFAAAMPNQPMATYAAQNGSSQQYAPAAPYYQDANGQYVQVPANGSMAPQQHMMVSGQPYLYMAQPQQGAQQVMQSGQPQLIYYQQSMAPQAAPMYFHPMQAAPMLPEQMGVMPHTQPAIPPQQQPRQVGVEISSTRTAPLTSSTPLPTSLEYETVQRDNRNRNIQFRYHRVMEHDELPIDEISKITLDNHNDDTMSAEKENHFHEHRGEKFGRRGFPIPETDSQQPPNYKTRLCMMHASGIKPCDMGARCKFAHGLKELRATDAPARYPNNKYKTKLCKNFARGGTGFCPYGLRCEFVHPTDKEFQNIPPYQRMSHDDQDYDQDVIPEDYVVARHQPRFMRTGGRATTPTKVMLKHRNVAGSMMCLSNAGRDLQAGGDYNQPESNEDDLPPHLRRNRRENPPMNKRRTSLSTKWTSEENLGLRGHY
The test can be described thus: MEX-5/TCR-2 RNA interaction inhibitors, dose response, biochemical, C. elegans, fluorescence polarization (AID 1960).
Conditions: not given
With `CCOc1ccc(N2C(=O)NC(=O)/C(=C/Nc3ccc(N(CC)CC)cc3)C2=O)cc1`, the EC50 is 106 µM (active).

A further test has as its target T4, RNA-binding protein pos-1 (Caenorhabditis elegans, UniProt G5EF15).
T4 sequence (G5EF15 whole entry): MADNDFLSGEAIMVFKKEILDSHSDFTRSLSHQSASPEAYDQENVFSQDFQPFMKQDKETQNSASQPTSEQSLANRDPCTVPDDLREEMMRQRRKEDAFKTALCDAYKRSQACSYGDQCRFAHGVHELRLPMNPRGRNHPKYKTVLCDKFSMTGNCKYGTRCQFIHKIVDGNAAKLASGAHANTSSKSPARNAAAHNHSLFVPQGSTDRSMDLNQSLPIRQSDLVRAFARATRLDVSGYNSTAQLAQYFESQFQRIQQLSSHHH
As to the kind of experiment: inhibitors of POS-1/mex-3 RNA binding, dose response, biochemical, fluorescence polarization (AID 1964).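 Note: purified POS-1 fused to maltose binding protein made in E. coli; potency of compounds blocking POS-1 binding to fluorescent RNA.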
Conditions: not given
A general note: Fluorescence polarisation rises when a labelled molecule tumbles more slowly, as on binding a larger partner.
In the case of `CCOc1ccc(N2C(=O)NC(=O)/C(=C/Nc3ccc(N(CC)CC)cc3)C2=O)cc1`, the EC50 is 151 µM (active).

Tested on in another test: not listed separately
As to the kind of experiment: Luminescence Cell-Based Dose Confirmation HTS to Identify Inhibitors of Platelet Dense Granule Release. [Related pubchem assays: 1663 (Primary HTS), 1678 (Summary of Project)]. Format: functional.
Conditions: not given
On to `Cc1ccc(CN(C(=O)c2csnn2)C(C(=O)NC2CCCC2)c2ccc(C)o2)cc1` (centres undefined), for which the EC50 is listed as > 112 µM (not active).
As to `COc1cc2c(cc1OC)-c1cc(NC3CCCCC3)nc(=O)n1CC2`, the EC50 was 2.24 µM (active).
